Reference: patent US11160808B2, “Compounds that enhance Atoh1 expression” (Massachusetts Eye & Ear Infirmary, priority 2008, dated 2021)
Where two headings read alike, the source gives them in different places.

Columns and labels:
[1] = tested on: Math1 enhancer and minimal promoter Luciferase reporter in HEK cells; experiment: Math1 Luciferase reporter assay in HEK cells; format: cell-based, human
Text: A human embryonic kidney (HEK) cell line stably expressing a Luciferase gene controlled by an Math1 enhancer and minimal promoter was used in a high-throughput screen (HTS) of 144,000 small molecules to identify compounds that increase Math1 expression (i.e., transcription and/or translation). Such compounds can be used to increase the conversion of stem cells, progenitor cells, and support cells to or towards a hair cell. Screens to identify such compounds are described by Li et al., (U.S. Publication No. 2005/0287127) and Li et al., (U.S. application Ser. No. 11/953,797).
HEK cells stably expressing the Math1 Luciferase reporter were plated onto 384 well plates and cultured overnight in medium containing 10% fetal calf serum (FCS). Activation of the Math1 enhancer was measured by the increase in luminescence on a plate reader following addition of a luciferase detection agent. The assay was optimized for cell number, time of incubation, volume of medium, cell lysis reagent and luciferase reagent. Luminescence levels were compared in cells with the Math1-luciferase construct with and without retinoic acid (1 μM), and/or a luciferase construct with and without the Math1 enhancer and minimal promoter region.
To improve assay sensitivity, and reduce the coefficient of variation (CV), a more sensitive luciferase reagent (BriteLite luciferase reporter assay reagent, Perkin Elmer) was used, and Triton-X-100 was added to the lysis reagent to ensure complete lysis of the cells. Following these changes a CV of 4.2% was recorded. These conditions were used for all high-throughput screens. The luminescence threshold for a compound to be positive was defined as a 2-fold increase above the control (e.g., cells exposed to DMSO).
Cells were seeded on 384 well plates and allowed to attach overnight at 37° C. with 5% CO2 in the absence of growth factors. Math1 activation was measured by the increase in luminescence on a plate reader following addition of a luciferase detection reagent. Luminescence was assessed at 24, 48, and 72 hours. These conditions were used to screen 144,000 compounds contained in the small molecule libraries at Harvard University's Laboratory for Drug Discovery in Neurodegeneration (LDDN).
HTS were performed using HEK-Math1 cells seeded in 384 well plates. One compound was added per well using pin transfer. The final concentration of each compound was […]. Cell were incubated in the presence of a compound for 48 hours at 37° C. with 5% CO2. Cell lysates then were collected and bioluminescence determined. Luminescence values were compared normalized against DMSO.
About 20000 compounds were screened per week in 50 plates of 384 well with the aid of robotic systems (Beckman Biomek FX). Compounds were screened at an average final concentration of 0.7 μM (in 0.04% DMSO) with each plate containing 16 wells of 1 μM retinoic acid, as a positive control, and 16 wells of 0.04% DMSO, as a vehicle control. Percent activation of luminescence in the test compounds was determined for cells treated with the compounds against cells treated with DMSO.
Ten compounds, randomly selected from the group of 110 compounds identified in Example 2, were further evaluated, as follows. HEK cells were plated on 96 well plates at a density of 100000 cells per well. One day after plating, 0.1, 1, and 5 μM of each positive compound was added per well in a 10% fetal bovine serum (FBS) DMEM solution. Cells were then lysed 48 hours after addition of the compound and Math1 expression was analyzed using a luciferase reporter assay, as described above, and real-time PCR.
The half maximal inhibitory concentration (IC50) and median lethal dose or Lethal Dose, 50% (LD50) were determined for each of the compounds identified in Example 2 using standard laboratory techniques. IC50 is a measure of the effectiveness of a compound in inhibiting biological or biochemical function. LD50 is the amount of a compound required to kill half the members of a tested population.

[2] = LD50 (median lethal dose) determination; format: cell-based
Text: IC50 is a measure of the effectiveness of a compound in inhibiting biological or biochemical function. LD50 is the amount of a compound required to kill half the members of a tested population.

[3] = Homo sapiens, HEK293; read-out: IC50
[4] = Homo sapiens, HEK293; read-out: Maximum (Fold DMSO)

Row | SMILES | IC50 [1, 3] [µM] | maximal fold induction [1, 4] | LD50 [2] [µM] | IC50 ([1]; Homo sapiens, HEK293) [µM] | maximal fold induction ([1]; Homo sapiens, HEK293, read-out: Maximum (Fold DMSO))
1 | O=C(CSc1nc2ccccc2o1)Nc1ccccc1Cl [CP-0029300, 2-(benzo[d]oxazol-2-ylthio)-N-(2-chlorophenyl)acetamide] | 1.6 | 2 | >10 |  | 
2 | c1ccc2sc(-c3cnc(N4CCOCC4)nc3)cc2c1 [CP-0059563, 4-(5-(benzo[b]thiophen-2-yl)pyrimidin-2-yl)morpholine] | > 10 | 1.9 | >10 |  | 
3 | CS(=O)(=O)n1nccc1-c1ccc(-c2ccc(F)cc2F)o1 [CP-0099289, 5-(5-(2,4-difluorophenyl)furan-2-yl)-1-(methylsulfonyl)-1H-pyrazole] | > 10 | 1.6 | >10 |  | 
4 | CCc1c(C)[nH]c2cc(-c3ccc(Cl)cc3)nn2c1=O [CP-0063375, 2-(4-chlorophenyl)-6-ethyl-5-methylpyrazolo[1,5-a]pyrimidin-7(4H)-one] | 2.2 | 1.9 | >10 |  | 
5 | O=C(CSc1nc2ccccc2c(=O)n1NC(=O)c1ccccc1)c1ccc(F)cc1 [CP-0036187, N-(2-(2-(4-fluorophenyl)-2-oxoethylthio)-4-oxoquinazolin-3(4H)-yl)benzamide] | 1 | 2.3 | >10 |  | 
6 | CCN(CC)c1ncnc2c1cnn2-c1cccc(C)c1 [CP-0079810, N,N-diethyl-1-m-tolyl-1H-pyrazolo[3,4-d]pyrimidin-4-amine] | 3 | 2.3 | >10 |  | 
7 | Cn1c(COc2ccc(F)cc2)nc2ccccc21 [CP-0074806, 2-((4-fluorophenoxy)methyl)-1-methyl-1H-benzo[d]imidazole] | 0.7 | 1.8 | >10 |  | 
8 | O=C(Nc1nc2ccc(Br)cc2s1)c1cccs1 [CP-0064917, N-(6-bromobenzo[d]thiazol-2-yl)thiophene-2-carboxamide] | > 10 | 2 | >10 |  | 
9 | CC(=O)Nc1cc(-c2sc3ccc(Cl)cc3c2C)n[nH]1 [CP-0102404, N-(3-(5-chloro-3-methylbenzo[b]thiophen-2-yl)-1H-pyrazol-5-yl)acetamide] | > 10 | 1.6 | >10 |  | 
10 | O=C(Nc1ccc(Cl)cn1)c1cccs1 [CP-0072156, N-(5-chloropyridin-2-yl)thiophene-2-carboxamide] | 2 | 2 | >10 |  | 
11 | CCN(CC)C(=O)c1cc2cc3cc(OC)ccc3nc2s1 [CP-0076627, N,N-diethyl-6-methoxythieno [2,3-b]quinoline-2-carboxamide] | 5 | 2.2 | >10 |  | 
12 | COc1cccc(C(=O)Nc2nc3ccc(F)cc3s2)c1 [CP-0107060, N-(6-fluorobenzo[d]thiazol-2-yl)-3-methoxybenzamide] | 0.1 | 2.2 | >10 |  | 
13 | COc1ccc(-c2csc(-c3c(C)noc3N)n2)cc1 [CP-0105343, 4-(4-(4-methoxyphenyl)thiazol-2-yl)-3-methylisoxazol-5-amine] | 3 | 2 | >10 |  | 
14 | Fc1ccccc1-c1noc(NCCCN2CCCCC2)n1 [CP-0130665, 3-(2-fluorophenyl)-N-(3-(piperidin-1-yl)propyl)-1,2,4-oxadiazol-5-amine] | 0.3 | 2 | >10 |  | 
15 | CC(C)Oc1ccc(C(=O)Nc2sccc2C#N)cc1 [CP-0110352, N-(3-cyanothiophen-2-yl)-4-isopropoxybenzamide] | 0.05 | 1.8 | >10 |  | 
16 | Cc1ccccc1-c1nnc(-c2ccccc2)o1 [CP-0062030, 2-phenyl-5-o-tolyl-1,3,4-oxadiazole] | 2 | 1.6 | >10 |  | 

Row | SMILES | IC50 [1, 3] [µM] | maximal fold induction [1, 4] | LD50 [2] [µM] | IC50 ([1]; Homo sapiens, HEK293) [µM] | maximal fold induction ([1]; Homo sapiens, HEK293, read-out: Maximum (Fold DMSO))
17 | O=C(c1ccc(-c2ccc(Br)cc2)o1)N1CCOCC1 [CP-0061777, (5-(4-bromophenyl)furan-2-yl)(morpholino)methanone] | > 10 | 2.1 | >10 |  | 
18 | Cc1cccc(Nc2nc(N)c(C(=O)C(C)C)s2)c1 [CP-0134381, 1-(4-amino-2-(m-tolylamino)thiazol-5-yl)-2-methylpropan-1-one] | 2 | 2.2 | >10 |  | 
19 | CNc1ccccc1C(=O)NCCc1ccccc1 [CP-0007991, 2-(methylamino)-N-phenethylbenzamide] | 0.6 | 2 | >10 |  | 
20 | N#Cc1c(NC(=O)c2ccccc2F)sc2c1CCCC2 [CP-0060852, N-(3-cyano-4,5,6,7-tetrahydrobenzo[b]thio-phen-2-yl)-2-fluorobenzamide] | 2.5 | 1.8 | >10 |  | 
21 | COc1ccc(OCC(=O)Nc2nccs2)cc1 [CP-0063182, 2-(4-methoxyphenoxy)-N-(thiazol-2-yl)acetamide] | 0.2 | 1.7 | >10 |  | 
22 | Cc1ccc(-c2noc(CN3CCCCC3)n2)cc1 [CP-0070164, 5-(piperidin-1-ylmethyl)-3-p-tolyl-1,2,4-oxadiazole] | 1.6 | 1.7 | >10 |  | 
23 | O=C(Nc1ccc(I)cc1)c1ccco1 [CP-0072253, N-(4-iodophenyl)furan-2-carboxamide] | 1.3 | 2 | >10 |  | 
24 | COc1ccc(C2C=C(c3ccc(Cl)cc3)Nc3nc4ccccc4n32)cc1 (stereo not drawn) [CP-0050095, 2-(4-chlorophenyl)-4-(4-methoxyphenyl)-1,4-dihydrobenzo[4.5]imi-dazo[1,2-a]pyrimidine] |  |  | >10 | 1.5 | 2.6
25 | Cc1ccccc1OCc1nc2ccccc2[nH]1 [CP-0109953, 2-(o-tolyloxymethyl)-1H-benzo[d]imidazole] | 0.1 | 1.8 | >10 |  | 
26 | Fc1ccc(-c2cnc(N3CCOCC3)nc2)cc1 [CP-0059642, 4-(5-(4-fluorophenyl)pyrimidin-2-yl)morpholine] | 1 | 2.2 | >10 |  | 
27 | COc1ccc(Br)c(-c2nc(-c3cccs3)no2)c1 [CP-0104904, 5-(2-bromo-5-methoxyphenyl)-3-(thiophen-2-yl)-1,2,4-oxadiazole] | > 10 | 2.2 | >10 |  | 
28 | NC(=O)c1c(NC(=O)c2cc3ccccc3o2)sc2c1CCC2 [CP-0087336, N-(3-carbamoyl-5,6-dihydro-4H-cyclopenta[b]thiophen-2-yl)benzofuran-2-carboxamide] | 0.08 | 2.2 | >10 |  | 
29 | Cc1cccc(-c2nc3cc(C)ccc3o2)c1 [CP-0103978, 5-methyl-2-m-tolylbenzo[d]oxazole] | 1 | 2 | >10 |  | 
30 | COc1ccccc1OCc1nc2ccccc2[nH]1 [CP-0069961, 2-((2-methoxyphenoxy)methyl)-1H-benzo[d]imidazole] | 2 | 1.7 | >10 |  | 
31 | Oc1ccc(-c2nc3ccccc3[nH]2)cc1 [CP-0047659, 4-(1H-benzo[d]imidazol-2-yl)phenol] | 1.3 | 2.3 | >10 |  | 
